Laboratory results taken from patent publication US20090124539A1, “Methods of treating infection” (priority 2007, published 2009).
Values after ≈ are worked out from the molar mass of the structure shown.

Columns and labels:
Streptococcus pneumoniae = assay: MIC, broth microdilution (CLSI); type: cell-based
Experimental: (§1) The solvent for all of the compounds was deionized water (DIW), and all of the compounds dissolved in the solvent. The stock solutions were allowed to stand in DIW for one hour at room temperature prior to testing to allow time for auto-sterilization.
(§2) The test organisms were originally received from clinical sources, or from the American Type Culture Collection. When received, the organisms were sub-cultured onto an appropriate agar medium. Following incubation, colonies were harvested from these plates and cell suspensions prepared and frozen at −80° C. On the day prior to assay, a frozen vial of each culture was thawed and the contents were streaked for isolation onto either Tryptic Soy Agar (Becton Dickinson, Sparks, Md.) or Tryptic Soy Agar (Enhanced Hemolysis; Becton Dickinson) supplemented with 5% sheep blood for streptococci. The agar plates were incubated overnight at 35° C. Staphylococcus aureus ATCC 29213 and Enterococcus faecalis ATCC 29212 were included as quality control isolates in the assay.
(§3) The test medium for the broth microdilution testing was Mueller Hinton II broth (MHB II; BBL# 212322, Lot # 6024003, Becton Dickinson). The broth was prepared at 1.05× normal weight/volume to offset the 5% volume of the drug solution in the final test plates.
For streptococci, lysed horse blood (Lot # H88621; Cleveland Scientific, Bath, Ohio) was added to the MHB II at a final concentration of 2%. […]
(§4) MIC values were determined using a broth microdilution method as recommended by the Clinical and Laboratory Standards Institute (Clinical and Laboratory Standards Institute^a. Methods for Dilution Antimicrobial Susceptibility Tests for Bacteria That Grow Aerobically; Approved Standard-Seventh Edition. Clinical and Laboratory Standards Institute document M7-A7 [ISBN 1-56238-587-9]. Clinical and Laboratory Standards Institute, 940 West Valley Road, Suite 1400, Wayne, Pa. 19087-1898 USA, 2006). Automated liquid handlers (Multidrop 384, Labsystems, Helsinki, Finland; Biomek 2000 and Multimek 96, Beckman Coulter, Fullerton Calif.) were used to conduct serial dilutions and make liquid transfers.
(§5) Wells of two standard 96-well microdilution plates (Falcon 3918; Becton Dickinson) were filled with 150 μL of […] using the Multidrop 384. These plates were used to prepare the drug “mother plates” that provided the serial drug dilutions for replicate “daughter plates”. The Biomek 2000 was used to transfer 150 μl of each stock solution from the wells of column 1 of a deep well plate to the corresponding wells in column 1 of the mother plate and to make eleven 2-fold serial dilutions in the mother plates. The wells of column 12 contained no drug and were the organism growth control wells. Each mother plate has the capacity to create a total of 12 daughter plates.
(§6) The daughter plates were loaded with 180 μL of one of the media described above using the Multidrop 384. The wells of the daughter plates ultimately contained 180 μL of MHB II, 10 μL of drug solution, and 10 μL of bacterial inoculum prepared in broth appropriate to the test organism (1.05×). The daughter plates were prepared on the Multimek 96 instrument, which transferred 10 μL of drug solution from each well of the mother plate to each corresponding well of each daughter plate in a single step.
Standardized inoculum of each organism was prepared following Clinical and Laboratory Standards Institute (Clinical and Laboratory Standards Institute^b. Performance Standards for Antimicrobial Susceptibility Testing; Sixteenth Informational Supplement. CLSI document M100-S16 [ISBN 1-56238-588-7]. Clinical and Laboratory Standards Institute, 940 West Valley Road, Suite 1400, Wayne, Pa. 19087-1898 USA, 2006) methods. The inoculum for each organism was dispensed into sterile reservoirs divided by length (Beckman Coulter), and the Biomek 2000 was used to inoculate the plates. […]

Enterococcus faecalis [1] = assay: MIC, broth microdilution (CLSI); type: cell-based
Experimental: as §1, §2, §3
(§7) CLSI guidelines recommend that Mueller-Hinton II broth be adjusted to contain 50 mg/L of Ca^++ ions for proper daptomycin MIC results. Since Mueller-Hinton II broth has already been adjusted by the manufacturer to contain approximately 25 mg/L of Ca^++ ions, an additional 25 mg/L of Ca^++ ions was adjusted with 10 mg/mL of CaCl2.2H2O (Lot# 084K0215; Sigma-Aldrich) added at a rate of 0.1 mL/L of broth, for each desired increment of 1 mg/L. This supplemented Mueller-Hinton II broth was used only in wells containing daptomycin.
as §4, §5
(§8) The daughter plates were loaded with 180 μL of one of the media described above using the Multidrop 384. The wells of the daughter plates ultimately contained 180 μL of MHB II, 10 μL of drug solution, and 10 μL of bacterial inoculum prepared in broth appropriate to the test organism (1.05×). The daughter plates were prepared on the Multimek 96 instrument, which transferred 10 μL of drug solution from each well of the mother plate to each corresponding well of each daughter plate in a single step. […]

[2] = system: Staphylococcus epidermidis; assay: MIC, broth microdilution (CLSI); type: cell-based
Experimental: as §1, §2, §3, §7, §4, §5, §8

Staphylococcus aureus [3] = assay: MIC, broth microdilution (CLSI); type: cell-based
Experimental: (§9) The stock solutions were allowed to stand in DIW for one hour at room temperature prior to testing to allow time for auto-sterilization.
as §2, §3, §7, §4, §5, §6

Enterococcus faecium = assay: MIC, broth microdilution (CLSI); type: cell-based
Experimental: as §9, §2, §3, §7, §4, §5, §6

Enterococcus faecalis [4] = conditions: quality control range for Enterococcus faecalis ATCC 29212 (# 101); cited from earlier work
Streptococcus pyogenes = assay: MIC, broth microdilution (CLSI); type: cell-based
Experimental: as §1, §2, §3
For streptococci, lysed horse blood (Lot # H88621; Cleveland Scientific, Bath, Ohio) was added to the MHB II at a final concentration of 2%.
as §7, §4, §5, §8

Staphylococcus aureus [5] = conditions: quality control range for Staphylococcus aureus ATCC 29213 (# 100); cited from earlier work
staphylococci = assay: MIC, broth microdilution, summary over staphylococci; type: cell-based; conditions: against staphylococci
Experimental: as §1
as §2, with “Staphylococcus aureus ATCC 29213 and Enterococcus faecalis ATCC 29212 were included as quality control isolates in the assay.” left out
(§10) MIC values were determined using a broth microdilution method as recommended by the Clinical and Laboratory Standards Institute (Clinical and Laboratory Standards Institute^a. Methods for Dilution Antimicrobial Susceptibility Tests for Bacteria That Grow Aerobically; Approved Standard-Seventh Edition. Clinical and Laboratory Standards Institute document M7-A7 [ISBN 1-56238-587-9]. Clinical and Laboratory Standards Institute, 940 West Valley Road, Suite 1400, Wayne, Pa. 19087-1898 USA, 2006). […]

Enterococci = assay: MIC, broth microdilution, summary over Enterococci; type: cell-based; conditions: against Enterococci
Experimental: as §1
as §2, with “Staphylococcus aureus ATCC 29213 and Enterococcus faecalis ATCC 29212 were included as quality control isolates in the assay.” left out
as §10

[6] = Streptococcus pyogenes Micromyx # 942, macrolide^R

## CN[C@H](CC(C)C)C(=O)N[C@H]1C(=O)N[C@@H](CC(N)=O)C(=O)N[C@H]2C(=O)N[C@H]3C(=O)N[C@H](C(=O)N[C@H](C(=O)O)c4cc(O)cc(O)c4-c4cc3ccc4O)[C@H](O)c3ccc(c(Cl)c3)Oc3cc2cc(c3O[C@@H]2O[C@H](CO)[C@@H](O)[C@H](O)[C@H]2O[C@H]2C[C@](C)(N)[C@H](O)[C@H](C)O2)Oc2ccc(cc2Cl)[C@H]1O [Vancomycin, vancomycin]
Streptococcus pneumoniae; Streptococcus pneumoniae, Streptococcus pneumoniae Micromyx # 374, Wild type
  MIC: 0.5 µg/mL (≈ 0.345 µM)
Streptococcus pneumoniae; Streptococcus pneumoniae, Streptococcus pneumoniae Micromyx # 375, parC, gyrB
  MIC: 0.5 µg/mL (≈ 0.345 µM)
Streptococcus pneumoniae; Streptococcus pneumoniae, Streptococcus pneumoniae Micromyx # 376, parC, gyrA
  MIC: 0.25 µg/mL (≈ 0.173 µM)
Streptococcus pneumoniae; Streptococcus pneumoniae, Streptococcus pneumoniae Micromyx # 379, parC, gyrA, gyrB
  MIC: 0.5 µg/mL (≈ 0.345 µM)
Streptococcus pneumoniae; Streptococcus pneumoniae, Streptococcus pneumoniae Micromyx # 927, mef(A)
  MIC: 0.5 µg/mL (≈ 0.345 µM)
Streptococcus pneumoniae; Streptococcus pneumoniae, Streptococcus pneumoniae Micromyx # 928, erm(B)
  MIC: 0.5 µg/mL (≈ 0.345 µM)
Enterococcus faecalis [1]; Enterococcus faecalis, ATCC29212, Enterococcus faecalis Micromyx # 101, VSE, CLSI QC strain (ATCC 29212)
  MIC: 4 µg/mL (≈ 2.76 µM)
Enterococcus faecalis [1]; Enterococcus faecalis, Enterococcus faecalis Micromyx # 413, LZD^R from res. dev. or other
  MIC: 2 µg/mL (≈ 1.38 µM)
Enterococcus faecalis [1]; Enterococcus faecalis, Enterococcus faecalis Micromyx # 486, Van A
  MIC: > 128 µg/mL
Enterococcus faecalis [1]; Enterococcus faecalis, Enterococcus faecalis Micromyx # 1088, Van B
  MIC: 128 µg/mL (≈ 88.3 µM)
[2]; Staphylococcus epidermidis
  MIC: 2 µg/mL (≈ 1.38 µM)
[2]; Staphylococcus epidermidis, MRSE
  MIC: 4 µg/mL (≈ 2.76 µM)
Staphylococcus aureus [3]; Staphylococcus aureus, ATCC 29213 / MSSA, Staphylococcus aureus Micromyx # 100, MSSA, CLSI QC strain (ATCC 29213)
  MIC: 2 µg/mL (≈ 1.38 µM)
Staphylococcus aureus [3]; Staphylococcus aureus, MRSA, Staphylococcus aureus Micromyx # 1004, MRSA, FA^R
  MIC: 1 µg/mL (≈ 0.69 µM)
Staphylococcus aureus [3]; Staphylococcus aureus, MRSA, Staphylococcus aureus Micromyx # 1730, Community-acquired MRSA
  MIC: 2 µg/mL (≈ 1.38 µM)
Staphylococcus aureus [3]; Staphylococcus aureus, MSSA, Staphylococcus aureus Micromyx # 1002, MSSA, macrolide^R
  MIC: 1 µg/mL (≈ 0.69 µM)
Staphylococcus aureus [3]; Staphylococcus aureus, Staphylococcus aureus Micromyx # 106, RA^R
  MIC: 1 µg/mL (≈ 0.69 µM)
Staphylococcus aureus [3]; Staphylococcus aureus, Staphylococcus aureus Micromyx # 1016, FA^R
  MIC: 1 µg/mL (≈ 0.69 µM)
Staphylococcus aureus [3]; Staphylococcus aureus, Staphylococcus aureus Micromyx # 1651, LZD^R clinical isolate
  MIC: 1 µg/mL (≈ 0.69 µM)
Staphylococcus aureus [3]; Staphylococcus aureus, Staphylococcus aureus Micromyx # 1727, GM^R
  MIC: 1 µg/mL (≈ 0.69 µM)
Staphylococcus aureus [3]; Staphylococcus aureus, Staphylococcus aureus Micromyx # 1731, CHL^R
  MIC: 1 µg/mL (≈ 0.69 µM)
Staphylococcus aureus [3]; Staphylococcus aureus, VISA, Staphylococcus aureus Micromyx # 1723, VISA
  MIC: 8 µg/mL (≈ 5.52 µM)
Enterococcus faecium; Enterococcus faecium, Enterococcus faecium Micromyx # 750, Van^S
  MIC: 1 µg/mL (≈ 0.69 µM)
Enterococcus faecium; Enterococcus faecium, Enterococcus faecium Micromyx # 752, Van A
  MIC: > 128 µg/mL
Enterococcus faecium; Enterococcus faecium, Enterococcus faecium Micromyx # 1120, Van B
  MIC: 32 µg/mL (≈ 22.1 µM)
Enterococcus faecium; Enterococcus faecium, Enterococcus faecium Micromyx # 1721, DAP^R
  MIC: > 128 µg/mL
Enterococcus faecalis [4]
  MIC, CLSI Recommended Range: 1 to 4 µg/mL
Streptococcus pyogenes; Streptococcus pyogenes
  MIC: 0.5 µg/mL (≈ 0.345 µM)
Streptococcus pyogenes; [6]
  MIC: 0.5 µg/mL (≈ 0.345 µM)
Staphylococcus aureus [5]
  MIC, CLSI Recommended Range: 0.5 to 2 µg/mL

## Empedopeptin
staphylococci; all strains tested
  MIC values in the range: 0.5 to 8 µg/mL
staphylococci; majority of strains
  MIC, majority of strains inhibited: 4 to 8 µg/mL
Streptococcus pneumoniae; Streptococcus pneumoniae Micromyx # 374, Wild type
  MIC: 1 µg/mL
Streptococcus pneumoniae; Streptococcus pneumoniae Micromyx # 375, parC, gyrB
  MIC: 2 µg/mL
Streptococcus pneumoniae; Streptococcus pneumoniae Micromyx # 376, parC, gyrA
  MIC: 2 µg/mL
Streptococcus pneumoniae; Streptococcus pneumoniae Micromyx # 379, parC, gyrA, gyrB
  MIC: 2 µg/mL
Streptococcus pneumoniae; Streptococcus pneumoniae Micromyx # 927, mef(A)
  MIC: <0.12 µg/mL
Streptococcus pneumoniae; Streptococcus pneumoniae Micromyx # 928, erm(B)
  MIC: 0.5 µg/mL
Streptococcus pneumoniae; all strains of S. pneumoniae
  MIC range: ≦0.12-2 μg/mL
Enterococcus faecalis [1]; Enterococcus faecalis Micromyx # 101, VSE, CLSI QC strain (ATCC 29212)
  MIC: 4 µg/mL
Enterococcus faecalis [1]; Enterococcus faecalis Micromyx # 413, LZD^R from res. dev. or other
  MIC: 8 µg/mL
Enterococcus faecalis [1]; Enterococcus faecalis Micromyx # 486, Van A
  MIC: 8 µg/mL
Enterococcus faecalis [1]; Enterococcus faecalis Micromyx # 1088, Van B
  MIC: 16 µg/mL
[2]; Staphylococcus epidermidis Micromyx # 108, MRSE
  MIC: 8 µg/mL
[2]; Staphylococcus epidermidis Micromyx # 835, MSSE
  MIC: 8 µg/mL
Staphylococcus aureus [3]; Staphylococcus aureus Micromyx # 100, MSSA, CLSI QC strain (ATCC 29213)
  MIC: 4 µg/mL
Staphylococcus aureus [3]; Staphylococcus aureus Micromyx # 106, RA^R
  MIC: 0.5 µg/mL
Staphylococcus aureus [3]; Staphylococcus aureus Micromyx # 1002, MSSA, macrolide^R
  MIC: 4 µg/mL
Staphylococcus aureus [3]; Staphylococcus aureus Micromyx # 1004, MRSA, FA^R
  MIC: 8 µg/mL
Staphylococcus aureus [3]; Staphylococcus aureus Micromyx # 1016, FA^R
  MIC: 8 µg/mL
Staphylococcus aureus [3]; Staphylococcus aureus Micromyx # 1651, LZD^R clinical isolate
  MIC: 4 µg/mL
Staphylococcus aureus [3]; Staphylococcus aureus Micromyx # 1723, VISA
  MIC: 4 µg/mL
Staphylococcus aureus [3]; Staphylococcus aureus Micromyx # 1727, GM^R
  MIC: 8 µg/mL
Staphylococcus aureus [3]; Staphylococcus aureus Micromyx # 1730, Community-acquired MRSA
  MIC: 4 µg/mL
Staphylococcus aureus [3]; Staphylococcus aureus Micromyx # 1731, CHL^R
  MIC: 4 µg/mL
Enterococcus faecium; Enterococcus faecium Micromyx # 750, Van^S
  MIC: 8 µg/mL
Enterococcus faecium; Enterococcus faecium Micromyx # 752, Van A
  MIC: 16 µg/mL
Enterococcus faecium; Enterococcus faecium Micromyx # 1120, Van B
  MIC: 16 µg/mL
Enterococcus faecium; Enterococcus faecium Micromyx # 1721, DAP^R
  MIC: 32 µg/mL
Streptococcus pyogenes; [6]
  MIC: ≦0.12 μg/mL
Streptococcus pyogenes; Streptococcus pyogenes Micromyx # 985, Susceptible
  MIC: ≦0.12 μg/mL
Streptococcus pyogenes; both S. pyogenes test strains (including the macrolide-resistant strain)
  MIC: ≤ 0.12 µg/mL
Enterococci; all strains tested
  range of MIC values: 4 to 32 µg/mL
Enterococci; most strains
  MIC, most strains inhibited: 8 to 16 µg/mL
